Test results as given in patent US20150366191A1, “ANTIMICROBIAL METHOD BY BLOCKING MANNITOL METABOLISM AND ANTIMICROBIAL COMPOSITION CONTAINING MANNITOL METABOLIC INHIBITOR” (Research & Business FOUNDATION SUNGKYUNKWAN UNIVERSITY, priority 2014, published 2015).

Columns and labels:
[1] = system: mannitol metabolism; experiment: mannitol metabolism inhibition, phenol red colour change in mannitol medium; format: cell-based; conditions: medium containing 27 mM of mannitol and phenol red
Method: When bacteria were cultured in a medium containing 27 mM of mannitol and phenol red, the mannitol was metabolized to produce fructose and reduce pH of the medium, thereby changing a color of the phenol red to yellow. However, since the phenol red was not changed in color to keep the medium red by inhibiting the mannitol metabolism, an inhibitor showing an mannitol metabolism inhibitory effect was found using such a principle (FIG. 11A).

[2] = system: bacteria; experiment: chemical toxicity assay (growth of bacteria); format: cell-based
[3] = molecular target: M1PDH (Staphylococcus aureus, UniProt P99140); experiment: in vitro M1PDH enzymatic assay (NADH optical density at 340 nm); format: biochemical; conditions: fructose-6-phosphate and NADH, or Mtl-1-phosphate and NAD as substrates
From the text: To measure an in vitro M1PDH enzyme activity, a change in concentration of NADH according to an enzyme activity was observed through a change in optical density at 340 nm using fructose-6-phosphate and NADH, or Mtl-1-phosphate and NAD as substrates.

[4] = system: bacteria infected into macrophages; experiment: macrophage infection model, viability of bacteria in the presence of mannitol; format: cell-based, Staphylococcus aureus; conditions: compound and mannitol used together; after 18 hours of infection
From the text: In addition, to confirm an inhibitory effect in a host cell, a macrophage infection model was used.

[5] = system: bacteria; experiment: viability of bacteria by optical density at 600 nm; format: cell-based; conditions: change in concentration of the compound; OD 600 nm

SMILES | mannitol metabolism inhibitory effect [1] | inhibition of growth of bacteria [2] | inhibition of M1PDH activity [3] | SA viability in macrophages [4] | viability of bacteria [5]
Cc1nn(-c2ccccc2)c2c1C(c1ccc([N+](=O)[O-])cc1)C(C#N)=C(N)O2 (stereo not drawn) [Compound 10, 6-amino-3-methyl-4-(4-nitrophenyl)-1-phenyl-1,4-dihydropyrano[2,3-c]pyrazole-5-carbonitrile] | inhibiting only the mannitol metabolism | not inhibiting growth of bacteria | inhibited M1PDH activity | – | –
Cc1c(O)c(O)cc2c1CC=C1[C@@]2(C)CC[C@@]2(C)C3C[C@](C)(C(=O)O)CC[C@]3(C)CC[C@]12C (stereo partly drawn) [Compound 5, (2R,4aS,6aS,6aS,14aS,14bR)-10,11-dihydroxy-2,4a,6a,6a,9,14a-hexamethyl-3,4,5,6,8,13,14,14b-octahydro-1H-picene-2-carboxylic acid] | – | – | inhibiting an activity of M1PDH | decrease in SA viability in a macrophage | decrease in viability
Nc1c(-c2ccc3ccccc3n2)c2ccc([N+](=O)[O-])cc2c(=O)n1Cc1ccccc1 [Compound 27, 3-amino-2-benzyl-7-nitro-4-(2-quinolyl)-1,2-dihydroisoquinolin-1-one] | inhibiting only the mannitol metabolism | not inhibiting growth of bacteria | inhibited M1PDH activity | – | –
O=C(NC(=O)c1ccc(Oc2ccc(Cl)cc2)c([N+](=O)O)c1)Nc1ccccc1C(F)(F)F [Compound 31, N-[4-(4-chlorophenoxy)-3-nitrobenzoyl]-N′-[2-(trifluoromethyl)phenyl]urea] | inhibiting only the mannitol metabolism | not inhibiting growth of bacteria | inhibited M1PDH activity | – | –
COc1nc(NC(=O)NS(=O)(=O)c2ccccc2C(F)(F)F)nc(C23CC4CC(CC(C4)C2)C3)n1 [Compound 26, 2-(1-adamantyl)-4-methoxy-6-{[({[2-(trifluoromethyl)phenyl]sulfonyl}amino)carbonyl]amino}-1,3,5-triazine] | inhibiting only the mannitol metabolism | not inhibiting growth of bacteria | inhibited M1PDH activity | – | –
